From patent EP0637247B1, “TREATMENT OF HERPESVIRUS INFECTION” (priority 1992, dated 1993)
Where two headings read alike, the source gives them in different places. Where a SMILES comes first, the peptide text is derived from it. [ ]: non-standard residue; d: D form.

Key:
HSV-1 F = assay type: cell-based; details: plaque reduction, HSV-1 F on Vero cell monolayers, peptide pretreatment 25 hours, replication 2 to 3 days
Procedure: Selected compounds were first formulated as 10 mM stocks in water for in vitro and cell culture procedures. The stocks are then diluted into buffers used for specific assays, or into cell culture media. For animal studies peptides are diluted into phosphate buffer saline.
Results of the plaque reduction assay performed with various peptides, expressed in terms of IC50 are tabulated below: […]

HSV-1 strain F = details: mice, foot-pad injections in PBS, one week pretreatment then three times weekly; particularly at the doses of 5 and 50µg/mouse
Procedure: After pretreatment, the left footpad was inflamed by injecting about 5 µL of 1M NaCl. After about 6 hours, the same footpad was abraded and a drop of HSV-1 strain F (2 x 10^3 pfu/ml) was then added deposited on the inflamed footpad.

SMILES	IC50 (HSV-1 F; read-out: IC50)	other results
CC[C@H](C)[C@H](NC(=O)[C@H](C)NC(=O)[C@@H](NC(=O)[C@H](Cc1ccccc1)NC(C)=O)[C@@H](C)CC)C(=O)N[C@@H](C)C(=O)N[C@H](CCCNC(=N)N)C(=O)N[C@H](CCCCN)C(=O)N[C@H](CCCCN)C(=O)N[C@H](CCCNC(=N)N)C(=O)N[C@H](CCCNC(=N)N)C(=O)N[C@H](CCC(N)=O)C(=O)N[C@H](CCCNC(=N)N)C(=O)N[C@H](CCCNC(=N)N)C(N)=O (Ac-FIAIA[dR][dK][dK][dR][dR][dQ][dR][dR]-NH2)	10 µM	
CC(=O)N[C@H](CCCNC(=N)N)C(=O)N[C@H](CCCCN)C(=O)N[C@H](CCCCN)C(=O)N[C@H](CCCNC(=N)N)C(=O)N[C@H](CCCNC(=N)N)C(=O)N[C@H](CCC(N)=O)C(=O)N[C@H](CCCNC(=N)N)C(=O)N[C@H](CCCNC(=N)N)C(N)=O (Ac-[dR][dK][dK][dR][dR][dQ][dR][dR]-NH2)	> 20 µM	
CC(=O)N[C@H](CCCNC(=N)N)C(=O)N[C@H](CCCNC(=N)N)C(=O)N[C@H](CCCNC(=N)N)C(=O)N[C@H](CCCNC(=N)N)C(=O)N[C@H](CCCNC(=N)N)C(=O)N[C@H](CCCNC(=N)N)C(=O)N[C@H](CCCNC(=N)N)C(N)=O [acetyl-[D-Arg]7-NH2, acetyl-[D-(Arg)7]-NH2]		IC50 (HSV-1 F): slight
CC(=O)N[C@H](CCCNC(=N)N)C(=O)N[C@H](CCCNC(=N)N)C(=O)N[C@H](CCCNC(=N)N)C(=O)N[C@H](CCCNC(=N)N)C(=O)N[C@H](CCCNC(=N)N)C(=O)N[C@H](CCCNC(=N)N)C(=O)N[C@H](CCCNC(=N)N)C(=O)N[C@H](CCCNC(=N)N)C(=O)N[C@H](CCCNC(=N)N)C(N)=O [acetyl-[D-Arg]9-NH2]		anti-herpetic effect in vivo (Figure 3) (HSV-1 strain F): anti-herpetic result
